The target in this assay is Integrin alpha-IIb/beta-3 (Homo sapiens, UniProt P08514+P05106). The assay can be described thus: Inhibition of alphaIIb-beta3 integrin mediated platelet aggregation.

This is an account of results in BindingDB's records for doi:10.1021/jm030306r (Merck Research Laboratories, 2003).

Structures are written as SMILES.

Chain of Integrin alpha-IIb/beta-3 (P05106 27-788 limits assumed): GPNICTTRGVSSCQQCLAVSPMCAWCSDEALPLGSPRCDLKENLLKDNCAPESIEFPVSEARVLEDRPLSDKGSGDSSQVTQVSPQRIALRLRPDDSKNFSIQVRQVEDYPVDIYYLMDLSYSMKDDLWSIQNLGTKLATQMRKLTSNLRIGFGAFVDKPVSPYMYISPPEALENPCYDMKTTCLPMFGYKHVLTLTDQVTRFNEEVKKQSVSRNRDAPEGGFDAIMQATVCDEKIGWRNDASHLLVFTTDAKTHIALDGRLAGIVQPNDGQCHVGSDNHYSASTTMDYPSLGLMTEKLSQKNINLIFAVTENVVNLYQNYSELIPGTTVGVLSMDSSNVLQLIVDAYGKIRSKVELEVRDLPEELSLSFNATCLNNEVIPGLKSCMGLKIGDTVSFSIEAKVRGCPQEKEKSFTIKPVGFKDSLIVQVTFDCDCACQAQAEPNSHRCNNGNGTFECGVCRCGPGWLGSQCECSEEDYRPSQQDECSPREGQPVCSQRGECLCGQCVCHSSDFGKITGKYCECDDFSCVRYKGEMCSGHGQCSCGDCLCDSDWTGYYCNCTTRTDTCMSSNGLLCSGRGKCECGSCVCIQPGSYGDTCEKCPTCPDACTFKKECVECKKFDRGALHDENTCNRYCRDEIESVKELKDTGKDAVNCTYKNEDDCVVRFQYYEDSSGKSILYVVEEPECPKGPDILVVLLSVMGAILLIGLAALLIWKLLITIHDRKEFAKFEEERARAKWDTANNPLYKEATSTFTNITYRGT
Chain of Integrin alpha-IIb/beta-3 (P08514 32-887 limits assumed): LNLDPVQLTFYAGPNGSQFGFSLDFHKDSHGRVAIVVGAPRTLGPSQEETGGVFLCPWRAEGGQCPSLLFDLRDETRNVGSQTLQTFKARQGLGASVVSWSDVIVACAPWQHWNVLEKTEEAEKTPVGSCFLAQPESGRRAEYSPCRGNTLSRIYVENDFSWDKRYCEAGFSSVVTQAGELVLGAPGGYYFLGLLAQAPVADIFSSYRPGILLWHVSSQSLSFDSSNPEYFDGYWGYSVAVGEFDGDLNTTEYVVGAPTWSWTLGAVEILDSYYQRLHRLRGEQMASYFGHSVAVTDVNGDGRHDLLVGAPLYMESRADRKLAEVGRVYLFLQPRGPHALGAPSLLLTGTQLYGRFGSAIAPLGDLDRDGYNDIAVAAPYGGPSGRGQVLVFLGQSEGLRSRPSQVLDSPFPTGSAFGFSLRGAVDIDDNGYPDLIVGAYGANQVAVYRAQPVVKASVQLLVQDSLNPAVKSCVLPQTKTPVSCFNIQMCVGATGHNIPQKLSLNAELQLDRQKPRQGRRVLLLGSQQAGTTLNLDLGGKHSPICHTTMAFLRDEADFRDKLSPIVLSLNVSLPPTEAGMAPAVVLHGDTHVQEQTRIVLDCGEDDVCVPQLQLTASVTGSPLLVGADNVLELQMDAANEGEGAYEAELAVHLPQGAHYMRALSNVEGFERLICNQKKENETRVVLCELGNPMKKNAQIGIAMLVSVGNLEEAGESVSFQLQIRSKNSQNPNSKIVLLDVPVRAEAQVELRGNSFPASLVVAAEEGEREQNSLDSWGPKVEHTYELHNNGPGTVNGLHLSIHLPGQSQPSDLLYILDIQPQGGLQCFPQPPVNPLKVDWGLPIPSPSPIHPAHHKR
Chain of Integrin alpha-IIb/beta-3 (P08514 891-1039 limits assumed): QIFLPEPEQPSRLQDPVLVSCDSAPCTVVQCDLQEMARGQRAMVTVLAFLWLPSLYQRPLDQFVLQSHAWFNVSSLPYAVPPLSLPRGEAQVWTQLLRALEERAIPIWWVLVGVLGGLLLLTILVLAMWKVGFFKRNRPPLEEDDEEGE

As usually defined, the IC50 is the point on the concentration scale where inhibition reaches its midpoint. A low value points to higher potency. `COc1ccc([C@H](CC(=O)O)N2CCN(CCCc3ccc4c(n3)NCCC4)C2=O)cn1` [(S)-3-(6-Methoxy-pyridin-3-yl)-3-{2-oxo-3-[3-(5,6,7,8-tetrahydro-[1,8]naphthyridin-2-yl)-propyl]-imidazolidin-1-yl}-propionic acid] gave a concentration for half-maximal inhibition (IC50) of 34.7 µM.
